According to PMC4675551, “Protein Kinase C-Independent Inhibition of Organic Cation Transporter 1 Activity by the Bisindolylmaleimide Ro 31-8220” (PLoS ONE, 2015):

Tests used:
Format in all cases: cell-based
[1] = target: T1, organic cation transporter 1 (OCT1) (Homo sapiens, UniProt O15245); assay: inhibition of […]-TEA uptake in HEK-OCT1 cells, […], more than […] inhibition; conditions: read-out: % inhibition at 5 μM
T1 construct: gene SLC22A1; NM_003057 overexpressed in HEK293 cells
T1 sequence (O15245 1-554): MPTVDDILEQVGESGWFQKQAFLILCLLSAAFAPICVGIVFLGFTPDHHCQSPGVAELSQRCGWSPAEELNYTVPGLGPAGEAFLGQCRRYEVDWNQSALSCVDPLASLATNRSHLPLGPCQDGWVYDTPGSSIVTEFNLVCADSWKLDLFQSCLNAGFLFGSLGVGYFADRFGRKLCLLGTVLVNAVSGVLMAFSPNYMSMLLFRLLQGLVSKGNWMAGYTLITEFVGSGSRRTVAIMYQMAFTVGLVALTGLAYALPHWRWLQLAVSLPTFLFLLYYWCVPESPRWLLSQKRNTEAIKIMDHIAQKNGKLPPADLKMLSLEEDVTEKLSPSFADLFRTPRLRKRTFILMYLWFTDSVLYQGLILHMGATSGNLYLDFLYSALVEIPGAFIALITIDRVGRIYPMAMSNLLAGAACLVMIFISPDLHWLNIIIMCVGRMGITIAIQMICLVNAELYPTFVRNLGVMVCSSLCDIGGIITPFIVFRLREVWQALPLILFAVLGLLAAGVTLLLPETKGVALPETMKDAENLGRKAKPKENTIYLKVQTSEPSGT

[2] = target: T1, organic cation transporter 1 (OCT1); assay: cis-inhibition of […]-TEA uptake in HEK-OCT1 cells
[3] = target: T2, multidrug and toxin extrusion protein 1 (MATE1) (Homo sapiens, UniProt Q96FL8); assay: inhibition of […]-TEA uptake in HEK-MATE1 cells
T2 construct: gene SLC47A1; NM_018242 overexpressed in HEK293 cells
T2 sequence (Q96FL8 1-570): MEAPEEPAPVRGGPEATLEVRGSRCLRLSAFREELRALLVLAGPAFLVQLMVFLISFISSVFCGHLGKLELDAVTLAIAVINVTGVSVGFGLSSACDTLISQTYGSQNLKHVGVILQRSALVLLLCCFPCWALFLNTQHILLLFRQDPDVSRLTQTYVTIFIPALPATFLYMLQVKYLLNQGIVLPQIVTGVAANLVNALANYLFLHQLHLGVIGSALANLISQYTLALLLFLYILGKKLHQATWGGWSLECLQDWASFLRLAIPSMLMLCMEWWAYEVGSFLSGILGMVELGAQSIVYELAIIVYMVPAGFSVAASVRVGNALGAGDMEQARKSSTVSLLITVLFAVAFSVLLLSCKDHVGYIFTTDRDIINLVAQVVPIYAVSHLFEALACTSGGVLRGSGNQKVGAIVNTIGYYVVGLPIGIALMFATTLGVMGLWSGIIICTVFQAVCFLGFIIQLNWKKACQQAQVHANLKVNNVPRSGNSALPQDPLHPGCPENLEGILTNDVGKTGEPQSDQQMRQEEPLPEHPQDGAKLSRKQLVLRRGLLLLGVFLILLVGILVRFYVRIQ

[4] = target: T3, organic cation transporter 2 (OCT2) (Homo sapiens, UniProt O15244); assay: cis-stimulation of […]-TEA uptake in HEK-OCT2 cells
T3 construct: gene SLC22A2; NM_003058 overexpressed in HEK293 cells
T3 sequence (O15244 1-555): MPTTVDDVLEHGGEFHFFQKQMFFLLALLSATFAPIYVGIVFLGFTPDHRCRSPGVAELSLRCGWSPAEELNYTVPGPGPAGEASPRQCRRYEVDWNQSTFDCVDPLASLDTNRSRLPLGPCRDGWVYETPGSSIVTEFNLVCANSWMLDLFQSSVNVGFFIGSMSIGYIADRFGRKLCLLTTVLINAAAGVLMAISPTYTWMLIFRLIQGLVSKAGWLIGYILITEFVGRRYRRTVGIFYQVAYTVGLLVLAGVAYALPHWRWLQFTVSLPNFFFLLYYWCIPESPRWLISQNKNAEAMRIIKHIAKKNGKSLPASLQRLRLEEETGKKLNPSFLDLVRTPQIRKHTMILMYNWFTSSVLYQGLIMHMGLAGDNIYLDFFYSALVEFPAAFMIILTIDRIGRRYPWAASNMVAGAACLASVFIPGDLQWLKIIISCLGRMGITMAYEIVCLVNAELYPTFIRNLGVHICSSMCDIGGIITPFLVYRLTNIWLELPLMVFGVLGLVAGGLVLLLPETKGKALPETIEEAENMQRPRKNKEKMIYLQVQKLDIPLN

MATE2-K = target: T4, MATE2-K (Homo sapiens, UniProt Q86VL8); assay: inhibition of […]-TEA uptake in HEK-MATE2-K cells
T4 construct: gene SLC47A2; NM_152908 overexpressed in HEK293 cells

[5] = target: T1, organic cation transporter 1 (OCT1); assay: inhibition of TEA and DAPI uptake in HEK-OCT1 cells at […]

T4 sequence (Q86VL8 1-566 isoform Q86VL8-3): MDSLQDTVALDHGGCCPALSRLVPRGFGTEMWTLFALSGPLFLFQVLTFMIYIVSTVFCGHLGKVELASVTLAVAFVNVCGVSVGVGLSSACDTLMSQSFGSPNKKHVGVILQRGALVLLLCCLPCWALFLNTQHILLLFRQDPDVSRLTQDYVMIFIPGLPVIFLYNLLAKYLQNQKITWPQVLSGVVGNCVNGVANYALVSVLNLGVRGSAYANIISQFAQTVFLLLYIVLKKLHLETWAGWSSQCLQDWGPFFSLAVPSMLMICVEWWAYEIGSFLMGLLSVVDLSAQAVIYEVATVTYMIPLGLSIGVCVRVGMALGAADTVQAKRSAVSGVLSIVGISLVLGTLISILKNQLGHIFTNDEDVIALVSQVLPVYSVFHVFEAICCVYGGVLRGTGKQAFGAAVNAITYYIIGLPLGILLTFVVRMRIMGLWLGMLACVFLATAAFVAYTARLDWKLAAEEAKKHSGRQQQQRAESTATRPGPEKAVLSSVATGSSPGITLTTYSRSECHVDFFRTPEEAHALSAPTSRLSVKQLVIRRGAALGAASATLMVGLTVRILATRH

| Structure (SMILES) | inhibition at 5 µM [1] [%] | other results |
| --- | --- | --- |
| Cn1cc(C2=C(c3cn(CCCSC(=N)N)c4ccccc34)C(=O)NC2=O)c2ccccc21 [BIM-IX, Ro 31–8220] |  | IC50 [2]: 180 ± 50 nM; IC50 [3]: 39 ± 6 nM; EC50 [4]: 400 ± 10 nM; IC50 (MATE2-K): 190 ± 70 nM |
| CN(C)CCCn1cc(C2=C(c3c[nH]c4ccccc34)C(=O)NC2=O)c2ccccc21 [BIM-I] | > 50 |  |
| Cn1cc(C2=C(c3cn(CCCN)c4ccccc34)C(=O)NC2=O)c2ccccc21 [BIM-VIII] | > 50 |  |
| CN(C)C[C@@H]1CCn2cc(c3ccccc32)C2=C(C(=O)NC2=O)c2cn(c3ccccc23)CCO1 [LY 333531] | > 50 |  |
| COc1ccc(CCN(C)CCCC(C#N)(c2ccc(OC)c(OC)c2)C(C)C)cc1OC (stereo not shown) [verapamil] |  | inhibition of TEA and DAPI uptake in HEK-OCT1 cells at 50 μM [5]: the reference OCT1 inhibitor verapamil similarly inhibited DAPI uptake |

The next lines start with results.

| inhibition at 5 µM [1] [%] | Structure (SMILES) | other results |
| --- | --- | --- |
| > 50 | NCCCn1cc(C2=C(c3c[nH]c4ccccc34)C(=O)NC2=O)c2ccccc21 [BIM-III] |  |
| > 50 | CN1CCCC1CCn1cc(C2=C(c3c[nH]c4ccccc34)C(=O)NC2=O)c2ccccc21 (stereo not shown) [BIM-II] |  |
